Key:
Experiment in all cases: GAL4-driven luciferase reporter assay in NIH3T3 cells
Format in all cases: cell-based
[1] = target: CfEcR-DEF mutant L223Y (Choristoneura fumiferana, UniProt O77255, L506Y); details: for Emax: NIH3T3, 40 h, read-out: Rel Max FI
Experimental: (§1) This construct was prepared in the same way as in switch 1.1 above except wild-type CfEcR-DEF was replaced with mutant CfEcR-DEF comprising a ligand binding domain comprising a substitution mutation selected from Table 1 below.
(§2) DNAs were transfected into mouse NIH3T3 cells (ATCC) as follows. Standard methods for culture and maintenance of the cells were followed. Cells were harvested and plated 96-well plates at 2,500 cells per well, in 50 μL of growth medium containing 10% fetal bovine serum (FBS). Twenty-four hours later, the cells were treated with 35 μL of serum-free growth medium containing either dimethylsulfoxide (DMSO; control) or a DMSO solution of ligand. The cells were then transfected using Superfect (Qiagen Inc.) transfection reagent. For each well, 0.625 μL of Superfect was mixed with 14.2 μL of serum-free growth medium. 0.16 μg of reporter construct and 0.04 μg of each receptor construct were added to the transfection reagent mix. The contents of the transfection mix were mixed in a vortex mixer and let stand at room temperature for 30 minutes. At the end of incubation, 15 μL of transfection mix was added to the cells. The cells were maintained at 37° C. and 5% CO2 for 48 hours in 5% FBS.
(§3) Reporter Assays: Cells were harvested 40 hours after adding ligands. 125 μL of passive lysis buffer (part of Dual-Luciferase reporter assay system from Promega Corporation) were added to each well of the […] plate. The plates were placed on a rotary shaker for 15 minutes. Twenty μL of lysate were assayed. Luciferase activity was measured using Dual-Luciferase reporter assay system from Promega Corporation following the manufacturer's instructions. Fold induction (FI) activities were calculated by dividing relative light units (“RLU”) in ligand treated cells with RLU in DMSO treated cells (untreated control).

[2] = target: CfEcR-DEF mutant T52W (Choristoneura fumiferana, UniProt O77255, T335W)
Chain of CfEcR-DEF mutant T52W (O77255 entry or part of it T335W): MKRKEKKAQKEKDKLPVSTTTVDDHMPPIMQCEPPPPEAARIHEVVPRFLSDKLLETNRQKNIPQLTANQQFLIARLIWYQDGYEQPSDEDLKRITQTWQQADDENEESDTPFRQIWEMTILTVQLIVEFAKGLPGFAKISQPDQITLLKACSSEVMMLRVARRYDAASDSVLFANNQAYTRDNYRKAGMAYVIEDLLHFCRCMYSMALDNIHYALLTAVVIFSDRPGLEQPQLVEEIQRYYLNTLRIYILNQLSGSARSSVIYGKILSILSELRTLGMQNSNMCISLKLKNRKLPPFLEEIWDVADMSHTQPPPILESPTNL
Chain of CfEcR-DEF mutant T52W (P28702 299-449, further chain): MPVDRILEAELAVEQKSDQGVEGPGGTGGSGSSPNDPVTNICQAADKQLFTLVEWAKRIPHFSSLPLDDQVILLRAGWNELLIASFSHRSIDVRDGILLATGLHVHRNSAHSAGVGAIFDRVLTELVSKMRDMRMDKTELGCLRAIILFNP
Experimental: as §1, §2, §3

[3] = target: CfEcR-DEF mutant W238M (Choristoneura fumiferana, UniProt O77255, W521M); details: for Emax: NIH3T3, 40 h, read-out: Rel MaxFI
Experimental: as §1, §2, §3

[4] = target: CfEcR-DEF mutant M125N (Choristoneura fumiferana, UniProt O77255, M408N)
Experimental: as §1, §2, §3

[5] = target: CfEcR-DEF mutant L234R (Choristoneura fumiferana, UniProt O77255, L517R); details: for Emax: NIH3T3, 40 h, read-out: Rel Max FI
Chain of CfEcR-DEF mutant L234R (O77255 entry or part of it L517R): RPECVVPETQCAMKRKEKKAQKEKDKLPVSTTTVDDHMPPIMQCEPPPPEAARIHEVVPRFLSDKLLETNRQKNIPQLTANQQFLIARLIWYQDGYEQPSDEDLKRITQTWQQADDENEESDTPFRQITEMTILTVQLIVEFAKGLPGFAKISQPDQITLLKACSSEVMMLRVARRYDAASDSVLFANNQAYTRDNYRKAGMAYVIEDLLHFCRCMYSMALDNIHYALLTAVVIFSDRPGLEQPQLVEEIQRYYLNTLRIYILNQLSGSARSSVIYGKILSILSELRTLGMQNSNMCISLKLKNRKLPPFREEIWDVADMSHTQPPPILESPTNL
Chain of CfEcR-DEF mutant L234R (P28702 299-449, further chain): as the sequence (P28702 299-449, further chain) above
Experimental: as §1, §2, §3

[6] = target: CfEcR-DEF mutant I51M (Choristoneura fumiferana, UniProt O77255, I334M); details: for Emax: NIH3T3, 40 h, read-out: Rel Max FI
Experimental: as §1, §2, §3

[7] = target: CfEcR-DEF mutant M219W (Choristoneura fumiferana, UniProt O77255, M502W); details: for Emax: NIH3T3, 40 h, read-out: Rel Max FI
Experimental: as §1, §2, §3

[8] = target: CfEcR-DEF mutant W238L (Choristoneura fumiferana, UniProt O77255, W521L); details: for Emax: NIH3T3, 40 h, read-out: Rel Max FI
Experimental: as §1, §2, §3

[9] = target: CfEcR-DEF mutant F48K (Choristoneura fumiferana, UniProt O77255, F331K); details: for Emax: NIH3T3, 40 h, read-out: Rel Max FI
Experimental: as §1, §2, §3

[10] = target: CfEcR-DEF mutant T52G (Choristoneura fumiferana, UniProt O77255, T335G); details: for Emax: NIH3T3, 40 h, read-out: Rel Max FI
Chain of CfEcR-DEF mutant T52G (O77255 entry or part of it T335G): as the sequence (O77255 entry or part of it L517R) above, with T129G, R311L counted along it
Chain of CfEcR-DEF mutant T52G (P28702 298-449, further chain): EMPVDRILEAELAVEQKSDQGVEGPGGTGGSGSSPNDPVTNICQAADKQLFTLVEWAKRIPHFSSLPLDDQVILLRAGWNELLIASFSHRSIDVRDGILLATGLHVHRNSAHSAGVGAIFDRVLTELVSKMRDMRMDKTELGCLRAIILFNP
Experimental: as §1, §2, §3

[11] = target: CfEcR-DEF mutant M219A (Choristoneura fumiferana, UniProt O77255, M502A); details: for Emax: NIH3T3, 40 h, read-out: Rel Max FI
Experimental: as §1, §2, §3

[12] = target: CfEcR-DEF mutant M125S (Choristoneura fumiferana, UniProt O77255, M408S)
Experimental: as §1, §2, §3

[13] = target: CfEcR-DEF mutant T52M (Choristoneura fumiferana, UniProt O77255, T335M); details: for Emax: NIH3T3, 40 h, read-out: Rel MaxFI
Chain of CfEcR-DEF mutant T52M (O77255 entry or part of it T335M): as the sequence (O77255 entry or part of it L517R) above, with T129M, R311L counted along it
Chain of CfEcR-DEF mutant T52M (P28702 298-449, further chain): as the sequence (P28702 298-449, further chain) above
Experimental: as §1, §2, §3

[14] = target: CfEcR-DEF mutant L223R (Choristoneura fumiferana, UniProt O77255, L506R); details: for Emax: NIH3T3, 40 h, read-out: Rel Max FI
Chain of CfEcR-DEF mutant L223R (O77255 entry or part of it L506R): as the sequence (O77255 entry or part of it T335W) above, with W117T, L288R counted along it
Chain of CfEcR-DEF mutant L223R (P28702 299-449, further chain): as the sequence (P28702 299-449, further chain) above
Experimental: as §1, §2, §3

[15] = target: CfEcR-DEF mutant T52R (Choristoneura fumiferana, UniProt O77255, T335R); details: for Emax: NIH3T3, 40 h, read-out: Rel Max FI
Experimental: as §1, §2, §3

[16] = target: CfEcR-DEF mutant M125G (Choristoneura fumiferana, UniProt O77255, M408G)
Experimental: as §1, §2, §3

[17] = target: CfEcR-DEF mutant L223K (Choristoneura fumiferana, UniProt O77255, L506K); details: for Emax: NIH3T3, 40 h, read-out: Rel Max FI
Chain of CfEcR-DEF mutant L223K (P28702 298-449): as the sequence (P28702 298-449, further chain) above
Chain of CfEcR-DEF mutant L223K (O77255 entry or part of it L506K): as the sequence (O77255 entry or part of it L517R) above, with L300K, R311L counted along it
Experimental: as §1, §2, §3

[18] = target: CfEcR-DEF mutant M219K (Choristoneura fumiferana, UniProt O77255, M502K); details: for Emax: NIH3T3, 40 h, read-out: Rel Max FI
Experimental: as §1, §2, §3

[19] = target: CfEcR-DEF mutant M219Y (Choristoneura fumiferana, UniProt O77255, M502Y); details: for Emax: NIH3T3, 40 h, read-out: Rel Max FI
Experimental: as §1, §2, §3

[20] = target: CfEcR-DEF mutant L234W (Choristoneura fumiferana, UniProt O77255, L517W); details: for Emax: NIH3T3, 40 h, read-out: Rel Max FI
Chain of CfEcR-DEF mutant L234W (O77255 entry or part of it L517W): as the sequence (O77255 entry or part of it L517R) above, with R311W counted along it
Chain of CfEcR-DEF mutant L234W (P28702 299-449, further chain): as the sequence (P28702 299-449, further chain) above
Experimental: as §1, §2, §3

[21] = target: CfEcR-DEF mutant F48R (Choristoneura fumiferana, UniProt O77255, F331R); details: for Emax: NIH3T3, 40 h, read-out: Rel Max FI
Experimental: as §1, §2, §3

[22] = target: CfEcR-DEF mutant M125I (Choristoneura fumiferana, UniProt O77255, M408I); details: for Emax: NIH3T3, 40 h, read-out: Rel Max FI
Chain of CfEcR-DEF mutant M125I (O77255 entry or part of it M408I): as the sequence (O77255 entry or part of it L517R) above, with M202I, R311L counted along it
Chain of CfEcR-DEF mutant M125I (P28702 299-449, further chain): as the sequence (P28702 299-449, further chain) above
Experimental: as §1, §2, §3

[23] = target: CfEcR-DEF mutant M125V (Choristoneura fumiferana, UniProt O77255, M408V); details: for Emax: NIH3T3, 40 h, read-out: Rel Max FI
Chain of CfEcR-DEF mutant M125V (O77255 entry or part of it M408V): as the sequence (O77255 entry or part of it T335W) above, with W117T, M190V counted along it
Chain of CfEcR-DEF mutant M125V (P28702 299-449, further chain): as the sequence (P28702 299-449, further chain) above
Experimental: as §1, §2, §3

[24] = target: CfEcR-DEF mutant T52Q (Choristoneura fumiferana, UniProt O77255, T335Q); details: for Emax: NIH3T3, 40 h, read-out: Rel Max FI
Experimental: as §1, §2, §3

[25] = target: CfEcR-DEF mutant L132E (Choristoneura fumiferana, UniProt O77255, L415E); details: for Emax: NIH3T3, 40 h, read-out: Rel Max FI
Experimental: as §1, §2, §3

Question: How did the EC50 [1] turn out when CCCCC(N(NC(=O)c1ccc(CC)cc1)C(=O)c1cc(C)cc(C)c1)C(C)(C)C (centres unmarked) [RG-115840, 3,5-dimethyl-benzoic acid N-(1-tert-butyl-pentyl)-N′-(4-ethyl-benzoyl)-hydrazide] was run?
Answer: 0.58 µM

Question: And the Emax [1]?
Answer: 142%

Question: What about the EC50 [2] of the same molecule?
Answer: 4.07 µM

Question: What about the EC50 [3] of the same molecule?
Answer: 2 µM

Question: What about the Emax [3] of the same molecule?
Answer: 41%

Question: What about the EC50 [4] of the same molecule?
Answer: 3.3 µM

Question: What about the EC50 [5] of the same molecule?
Answer: 20 µM

Question: What about the Emax [5] of the same molecule?
Answer: 224%

Question: And the EC50 [6]?
Answer: 4.13 µM

Question: What about the Emax [6] of the same molecule?
Answer: 27%

Question: And the EC50 [7]?
Answer: 2.33 µM

Question: What about the Emax [7] of the same molecule?
Answer: 39%

Question: And the EC50 [8]?
Answer: 2 µM

Question: What about the Emax [8] of the same molecule?
Answer: 41%

Question: What about the EC50 [9] of the same molecule?
Answer: 3.76 µM

Question: And the Emax [9]?
Answer: 18%

Question: And the EC50 [10]?
Answer: 3.61 µM

Question: And the Emax [10]?
Answer: 23%

Question: And the EC50 [11]?
Answer: 2.87 µM

Question: And the Emax [11]?
Answer: 60%

Question: And the EC50 [12]?
Answer: 1.4 µM

Question: What about the EC50 [13] of the same molecule?
Answer: 5 µM

Question: What about the Emax [13] of the same molecule?
Answer: 15%

Question: What about the EC50 [14] of the same molecule?
Answer: 2 µM

Question: What about the Emax [14] of the same molecule?
Answer: 25%

Question: And the EC50 [15]?
Answer: > 33 µM

Question: What about the Emax [15] of the same molecule?
Answer: 2%

Question: And the EC50 [16]?
Answer: 2.97 µM

Question: And the EC50 [17]?
Answer: 1 µM

Question: And the Emax [17]?
Answer: 93%

Question: What about the EC50 [18] of the same molecule?
Answer: > 33 µM

Question: What about the Emax [18] of the same molecule?
Answer: 1%

Question: And the EC50 [19]?
Answer: 1 µM

Question: What about the Emax [19] of the same molecule?
Answer: 68%

Question: What about the EC50 [20] of the same molecule?
Answer: > 33 µM

Question: What about the Emax [20] of the same molecule?
Answer: 6%

Question: What about the EC50 [21] of the same molecule?
Answer: 3.58 µM

Question: And the Emax [21]?
Answer: 265%

Question: What about the EC50 [22] of the same molecule?
Answer: 3.02 µM

Question: And the Emax [22]?
Answer: 45%

Question: And the EC50 [23]?
Answer: 3.79 µM

Question: And the Emax [23]?
Answer: 47%

Question: What about the EC50 [24] of the same molecule?
Answer: 2 µM

Question: And the Emax [24]?
Answer: 34%

Question: And the EC50 [25]?
Answer: 1.67 µM

Question: What about the Emax [25] of the same molecule?
Answer: 156%

Question: CCc1c(C(=O)NN(C(=O)c2cc(OC)c(C)c(OC)c2)C(C=C(C)C(C)(C)C)C(C)(C)C)ccc2c1OCCO2 (centres unmarked) [RG-115898, 3,5-dimethoxy-4-methyl-benzoic acid N-(1-tert-butyl-3,4,4-trimethyl-pent-2-enyl)-N′-(5-ethyl-2,3-dihydro-benzo[1,4]dioxine-6-carbonyl)-hydrazide] was tested. Which EC50 [1] did it give?
Answer: 0.33 µM

Question: And the Emax [1]?
Answer: 20%

Question: What about the EC50 [2] of the same molecule?
Answer: 0.18 µM

Question: What about the Emax ([2]; NIH3T3, 40 h, read-out: Rel Max FI) of the same molecule?
Answer: 424%

Question: And the EC50 [3]?
Answer: > 33 µM

Question: And the Emax [3]?
Answer: 3%

Question: And the EC50 [4]?
Answer: 0.94 µM

Question: And the EC50 [5]?
Answer: > 33 µM

Question: What about the Emax [5] of the same molecule?
Answer: 58%

Question: And the EC50 [6]?
Answer: > 33 µM

Question: And the Emax [6]?
Answer: 2%

Question: What about the EC50 [7] of the same molecule?
Answer: > 33 µM

Question: What about the Emax [7] of the same molecule?
Answer: 0%

Question: And the EC50 [8]?
Answer: > 33 µM

Question: What about the Emax [8] of the same molecule?
Answer: 0%

Question: What about the EC50 [9] of the same molecule?
Answer: > 33 µM

Question: What about the Emax [9] of the same molecule?
Answer: 8%

Question: What about the EC50 [10] of the same molecule?
Answer: > 33 µM

Question: And the Emax [10]?
Answer: 1%

Question: And the EC50 [11]?
Answer: 1 µM

Question: What about the Emax [11] of the same molecule?
Answer: 5%

Question: And the EC50 [12]?
Answer: 0.33 µM

Question: What about the EC50 [13] of the same molecule?
Answer: > 33 µM

Question: And the Emax [13]?
Answer: 1%

Question: What about the EC50 [14] of the same molecule?
Answer: > 33 µM

Question: And the Emax [14]?
Answer: 1%

Question: And the EC50 [15]?
Answer: > 33 µM

Question: What about the Emax [15] of the same molecule?
Answer: 0%

Question: What about the EC50 [16] of the same molecule?
Answer: 0.08 µM

Question: And the Emax [17]?
Answer: 18%

Question: And the EC50 [18]?
Answer: > 33 µM

Question: What about the Emax [18] of the same molecule?
Answer: 0%

Question: And the EC50 [19]?
Answer: > 33 µM

Question: What about the Emax [19] of the same molecule?
Answer: 1%

Question: And the EC50 [20]?
Answer: > 33 µM

Question: What about the Emax [20] of the same molecule?
Answer: 2%

Question: What about the EC50 [21] of the same molecule?
Answer: > 33 µM

Question: What about the Emax [21] of the same molecule?
Answer: 0%

Question: And the EC50 [22]?
Answer: > 33 µM

Question: What about the Emax [22] of the same molecule?
Answer: 0%

Question: And the EC50 [23]?
Answer: > 33 µM

Question: What about the Emax [23] of the same molecule?
Answer: 1%

Question: What about the EC50 [24] of the same molecule?
Answer: 20 µM

Question: And the Emax [24]?
Answer: 8%

Question: What about the EC50 [25] of the same molecule?
Answer: 2.15 µM

Question: What about the Emax [25] of the same molecule?
Answer: 34%
